Source: patent US20230090439A1, “PHARMACEUTICAL COMPOSITION FOR CONTROLLING PARASITES ON NON-HUMAN ORGANISMS” (priority 2020, published 2023)
Values belong to the molecule of their own block, whether it stands above or below them.

Test: Solubility experiments (saturation solubility in solvents, HPLC-UV of supernatant)
Type: physicochemical
Conditions: for Solubility in the solvent mixture of the composition according to the invention (in words): isopropanol/propylene carbonate 65:35, room temperature
Description: Dissolution experiments for active ingredients I-1, I-2, I-3 and I-4 in solvents for a pharmaceutical composition according to the invention are presented below. For biological effect, the active ingredient should be incorporated at a certain dose or amount in the formulation, in the ideal case it should be a solution in the formulation such that the active ingredient is therefore dissolved in the solvent. A certain minimum solubility is required for the solvent since the application volume is limited.
In this case, 10 g of the appropriate solvent or solvent mixture were initially charged and as much active ingredient was added until the solution is saturated. Isopropanol (IPA) and propylene carbonate (PPC) were used as solvents. The samples were stirred for 3 days. Should the active ingredient become fully dissolved, active ingredient was again added. Subsequently, the samples were stored for a further 4 days at the relevant temperature and centrifuged in order to remove the undissolved particles. The supernatants were analyzed in each case for active ingredient content by HPLC-UV.
Furthermore, solubility experiments with three further active ingredients from the class of fluorinated heteroarylamides in different solvents were carried out. The solubility experiments were carried out analogously to the experiments described above, however only at room temperature and the solvent mixture isopropanol/propylene carbonate 65:35% [m/m] was selected.
Experiments with solvent systems were also carried out in which the first solvent comprised two alcohols.

[1] = Isopropanol, room temperature (Table 2)
[2] = Isopropanol/propylene carbonate 65/35, room temperature (Table 2)
[3] = Propylene carbonate, room temperature (Table 2)

Saturation solubility [1]: 6.99 % [w/w]
Saturation solubility [2]: 24.20 % [w/w]
Saturation solubility [3]: 5.34 % [w/w]
Solubility in the solvent mixture of the composition according to the invention (in words): very good solubilities
SMILES: O=C(NC1CC1)c1cc(-c2cnn(-c3c(Cl)cc(C(F)(C(F)(F)F)C(F)(F)F)cc3OC(F)(F)F)c2)cnc1Cl [I-2]

Saturation solubility (Ethanol (Table 3)): 2.76 % [ w/w]
Saturation solubility (Ethanol/glycerol carbonate 65:35 (Table 3)): 6.48 % [ w/w]
Saturation solubility (Ethanol/propylene carbonate 65:35 (Table 3)): 9.45 % [ w/w]
Solubility (Ethanol/propylene carbonate/glycerol carbonate 65:17.5:17.5): >5 % [w/w]
Saturation solubility (Glycerol carbonate (Table 3)): 0.15 % [ w/w]
Saturation concentration of the solution (IPA/PPC 25/75 23° C.): 7.58 %[w/w]
Saturation concentration of the solution (IPA/PPC 35/65 23° C.): 8.79 %[w/w]
Saturation concentration of the solution (IPA/PPC 50/50 23° C.): 9.26 %[w/w]
Saturation concentration of the solution (IPA/PPC 60/40 23° C.): 8.60 %[w/w]
Saturation concentration of the solution (IPA/PPC 65/35 5° C.): 6.32 %[w/w]
Saturation concentration of the solution (IPA/PPC 65/35 23° C.): 8.31 %[w/w]
Saturation concentration of the solution (IPA/PPC 70/30 23° C.): 7.49 %[w/w]
Saturation concentration of the solution (IPA/PPC 75/25 23° C.): 6.70 %[w/w]
Saturation concentration of the solution (IPA/PPC 80/20 23° C.): 5.90 %[w/w]
Saturation concentration of the solution (IPA/PPC 90/10 23° C.): 3.74 %[w/w]
Saturation concentration of the solution (Isopropanol 5° C.): 0.98 %[w/w]
Saturation concentration of the solution (Isopropanol 23° C.): 1.56 %[w/w]
Saturation solubility (Isopropanol (Table 3)): 1.56 % [ w/w]
Solubility (Isopropanol/ethanol/glycerol carbonate 32.5:32.5:35): >5 % [w/w]
Solubility (Isopropanol/ethanol/propylene carbonate 32.5:32.5:35): >5 % [w/w]
Saturation solubility (Isopropanol/glycerol carbonate 65:35 (Table 3)): 5.98 % [ w/w]
Solubility (Isopropanol/propylene carbonate/glycerol carbonate 65:17.5:17.5): >5 % [w/w]
Saturation concentration of the solution (Propylene carbonate 5° C.): 1.80 %[w/w]
Saturation concentration of the solution (Propylene carbonate 23° C.): 2.43 %[w/w]
Saturation solubility (Propylene carbonate (Table 3)): 2.43 % [ w/w]
Solubility in the mixture of isopropanol and propylene carbonate compared to the pure solvents (in words) (mixture of isopropanol and propylene carbonate vs pure solvents): significant solubility increase
Solubility in the solvent systems of Table 4 (in words) (three-component alcohol/carbonate solvent systems of Table 4): good solubilities
SMILES: CN(C(=O)c1cc(-c2cnn(-c3c(Cl)cc(C(F)(C(F)(F)F)C(F)(F)F)cc3Cl)c2)cnc1Cl)C1CC1 [I-1, 2-chloro-N-cyclopropyl-5-[1-[2,6-dichloro-4-[1,2,2,2-tetrafluoro-1-(trifluoromethyl)-ethyl]phenyl]pyrazol-4-yl]-N-methylpyridine-3-carboxamide]

Saturation solubility [1]: 13.42 % [w/w]
Saturation solubility [2]: 29.38 % [w/w]
Saturation solubility [3]: 11.76 % [w/w]
Solubility in the solvent mixture of the composition according to the invention (in words): very good solubilities
SMILES: O=C(NC1CC1)c1cc(-c2cnn(-c3c(Br)cc(C(F)(C(F)(F)F)C(F)(F)F)cc3OC(F)(F)F)c2)cnc1Cl [I-4]

Saturation solubility [1]: 4.18 % [w/w]
Saturation solubility [2]: 17.57 % [w/w]
Saturation solubility [3]: 4.89 % [w/w]
Solubility in the solvent mixture of the composition according to the invention (in words): very good solubilities
SMILES: O=C(NC1CC1)c1cc(-c2cnn(-c3c(Cl)cc(C(F)(C(F)(F)F)C(F)(F)F)cc3C(F)(F)F)c2)cnc1Cl [I-3, 2-chloro-5-[1-[2-chloro-4-[1,2,2,2-tetrafluoro-1-(trifluoromethyl)ethyl]-6-(trifluoromethyl)phenyl]-1H-pyrazol-4-yl]-N-cyclopropyl-3-pyridinecarboxamide]
